According to patent US20230322805A1, “NOVEL PYRIMIDODIAZEPINE DERIVATIVES OR USES THEREOF” (SPARK BIOPHARMA, INC., priority 2020, published 2023):

How the values were obtained:
DNAJC3 [1] = target: T1, DNAJC3 (Homo sapiens, UniProt Q13217); experiment: Surface plasmon resonance assay; assay type: binding; conditions: various concentrations, PBS pH 7.3, 25° C.
T1 sequence (Q13217 32-504): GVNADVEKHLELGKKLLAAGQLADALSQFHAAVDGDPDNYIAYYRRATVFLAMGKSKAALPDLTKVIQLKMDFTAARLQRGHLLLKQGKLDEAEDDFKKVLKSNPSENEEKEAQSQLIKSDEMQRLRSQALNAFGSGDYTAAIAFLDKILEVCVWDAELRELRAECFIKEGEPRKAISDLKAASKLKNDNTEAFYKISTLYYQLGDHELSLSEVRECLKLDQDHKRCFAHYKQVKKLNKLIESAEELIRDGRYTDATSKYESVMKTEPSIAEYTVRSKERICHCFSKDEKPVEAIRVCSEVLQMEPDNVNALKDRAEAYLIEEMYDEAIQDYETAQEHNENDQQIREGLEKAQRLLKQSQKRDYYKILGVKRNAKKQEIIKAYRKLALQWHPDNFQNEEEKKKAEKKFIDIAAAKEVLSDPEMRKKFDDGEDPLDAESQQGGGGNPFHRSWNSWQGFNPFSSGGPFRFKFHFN
Description: (§1) Surface plasmon resonance (SPR) assays were performed using a Biacore T100 instrument (GE Healthcare). The recombinant PDIA3 or DNAJC3 protein was immobilized on the CM5 sensor chip (GE Healthcare) through an amide bond by activating the carboxy group on the CM5 sensor chip with a 1:1 mixture of N-ethyl-N′-(3-dimethylaminopropyl)-carbodiimide and N-hydroxysuccinimide. Protein immobilization reactions were performed in PBS containing 0.005% Tween 20 at pH 4.7 and pH 5.0 for PDIA3 and DNAJC3, respectively. Binding between compounds and proteins was monitored by injecting compounds at various concentrations into PBS (pH 7.3) containing 3% DMSO and 0.005% Tween 20 at 25° C. Data were analyzed to calculate kinetic parameters by fitting sensor grams with a 1:1 binding model using Biacore T100 evaluation software (GE Healthcare).
(§2) Additionally, it was confirmed whether SB1617 directly binds to PDIA3 and DNAJC3 through surface plasmon resonance (SPR) of Examples 1-11.

PDIA3 = target: T2, PDIA3 (Homo sapiens, UniProt P30101); experiment: Surface plasmon resonance assay; assay type: binding; conditions: various concentrations, PBS pH 7.3, 25° C.
T2 sequence (P30101 25-505): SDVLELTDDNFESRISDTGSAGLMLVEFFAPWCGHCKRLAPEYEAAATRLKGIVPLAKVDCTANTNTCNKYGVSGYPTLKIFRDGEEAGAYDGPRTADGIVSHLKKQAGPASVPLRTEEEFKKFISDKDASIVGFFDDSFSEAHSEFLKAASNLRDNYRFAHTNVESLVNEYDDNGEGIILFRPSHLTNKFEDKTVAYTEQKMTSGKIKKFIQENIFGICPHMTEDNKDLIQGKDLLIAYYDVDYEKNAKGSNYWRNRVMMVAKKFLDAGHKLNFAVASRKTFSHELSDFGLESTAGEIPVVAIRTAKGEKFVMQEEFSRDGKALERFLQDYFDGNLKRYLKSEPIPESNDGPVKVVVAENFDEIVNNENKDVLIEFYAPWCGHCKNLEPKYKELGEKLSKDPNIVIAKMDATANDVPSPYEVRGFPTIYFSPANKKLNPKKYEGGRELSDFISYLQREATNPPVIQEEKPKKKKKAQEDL
Description: as §1, §2

[2] = tested on: LC3-1 to LC3-II conversion (autophagy); experiment: Immunoblot of LC3-1 to LC3-II conversion and p62 in HEK293 BiFC-tau cells; assay type: cell-based, human; conditions: 5 μM SB1617, presence or absence of 500 nM TG, 6 hours
DNAJC3 [3] = target: T1, DNAJC3; experiment: CETSA and pull-down assay with probe SB1624; assay type: binding; design: endogenous in cells; host or cells: HEK293 BiFC-tau cells (TS-FITGE, CETSA); SH-SY5Y cells (pull-down with probe SB1624); conditions: CETSA 10 μM in HEK293 BiFC-tau cells; pull-down 5 μM SB1624 with or without 40 μM SB1617 in SH-SY5Y cells
Description: HEK293 BiFC-tau cells were treated with DMSO (0.1%) and a compound according to the present invention (10 μM) in the presence of thapsigargin (200 nM) for 3 hours. The cell suspension was heated at the indicated temperature range for 3 minutes and then at 25° C. for 3 minutes. The heated cells were washed with PBS and resuspended in Lysis Buffer A. For cell lysis, cell suspensions were freeze-thawed in liquid nitrogen three times. The cell lysate was washed by centrifugation at 20000 g, 4° C. for 20 minutes. Equal volumes of washed cell lysate were combined with SDS buffer and subjected to immunoblotting.
SH-SY5Y cells were seeded in 6-well plates and then treated with 1 μM thapsigargin and 5 μM SB1624 (probe compound) for 2.5 hours with or without 40 μM SB1617. Cells were exposed to 356 nm UV irradiation for 30 min on ice. After washing with cold PBS, cells were lysed in RIPA buffer and removed by centrifugation at […] for 15 minutes at 4° C. The protein concentration of the supernatant was determined by Pierce BCA Protein Assay Kit and the protein concentration was adjusted to 1 mg/mL. […] Proteins were eluted by boiling with 3×SDS sample buffer and analyzed by SDS-PAGE and Western blot. […]

[4] = tested on: DsRed-IRES-tau EGFP HEK293 cells; experiment: Flow cytometry of DsRed-IRES-tau EGFP HEK293 cells (tau clearance); assay type: cell-based, human; conditions: 5 μM compound with 100 nM TG for 20 hours
Htt-Q74 = experiment: Level of aggregation-prone mutant protein after treatment; assay type: cell-based; conditions: SB1617 treatment
[5] = tested on: protein synthesis in SH-SY5Y cells; experiment: Protein synthesis labelling with furomycin in SH-SY5Y cells; assay type: cell-based, human; conditions: 10 μM SB1617, with thapsigargin
Description: 5-1. […] To assure this, SH-SY5Y cells were treated with 10 μM SB1617 for directed time, and then the newly synthesized protein was labeled with 10 μg/mL furomycin for 10 minutes and visualized by anti-furomycin antibody staining.

CN(Cc1ccc(Cl)cc1)c1ncnc2c1[C@@H]1OC[C@H](CN2)N1S(=O)(=O)c1ccc([N+](=O)[O-])cc1 [Compound 117]
direct binding (SPR) (DNAJC3 [1]): binds directly
direct binding (SPR) (PDIA3): binds directly
conversion from LC3-1 to LC3-II [2]: conversion from light chain 3-1 (LC3-1) to LC3-II was confirmed
specific binding (CETSA, pull-down) (DNAJC3 [3]): specifically binds
EGFP-to-DsRed signal ratio [4]: decreased
mutation level of Htt-Q74 (Htt-Q74): downregulated
inhibition of protein synthesis [5]: enhanced and extended
